From patent publication US12329762B2, “Pharmaceutical preparation for improving absorption and postprandial hypoglycemic action of insulin” (Eli Lilly and Company, priority 2015, dated 2025)

Columns and labels:
[1] = 8-hour euglycemic clamp, plasma lispro (pharmacokinetic profile) after sc lispro ± iloprost; type: in vivo, human; conditions: OT2D subjects with A1c>8%, sc lispro 10 or 30 U with vs without 1 nmol iloprost
Excerpt: Euglycemic clamp. Subjects were admitted to the Sherbrooke University Hospital Clinical Research Center (CRC) at 8 PM the evening prior to each study. An i.v. antecubital cannula was installed to allow venous sampling for immediate whole blood glucose level measurements by a glucose analyzer (FreeStlyle Lite Glucometer, Abbott Diabetes Care Inc.) at 30-min intervals until glycemic target is reached and at 2-hour intervals thereafter. A second contralateral cannula was installed for continuous i.v. administration of regular insulin and glucose, as needed, and plasma glucose has been brought progressively into the normal target range of 5-7 mmol/L overnight and then kept at this level. Experiments started around 8 AM. Patients have been kept fasting (drinking water permitted) during the entire 8-hour clamp study. […] Plasma glucose levels were monitored every 5 min for the first 4 hours and at 10-min intervals thereafter. […] Subjects were allowed to leave when glucose levels were stabilised over 6 mmol/L. Plasma lispro was measured by an ultra-specific radioimmunoassay (Linco Research Inc.) Detection limit is 18 pmol/L, intra-assay CV is 2.5% in our hands (Gagnon-Auger M, et al. Diabetes Care 2010;33(12):2502-7). […]
The fractional plasmatic lispro AUCs were calculated by the trapezoidal method. […]

[2] = 8-hour euglycemic clamp, glucose infusion rate (pharmacodynamic profile) after sc lispro ± iloprost; type: in vivo, human; conditions: OT2D subjects with A1c>8%, sc lispro 10 or 30 U with vs without 1 nmol iloprost
Excerpt: Euglycemic clamp. Subjects were admitted to the Sherbrooke University Hospital Clinical Research Center (CRC) at 8 PM the evening prior to each study. An i.v. antecubital cannula was installed to allow venous sampling for immediate whole blood glucose level measurements by a glucose analyzer ([…] Glucometer, Abbott Diabetes Care Inc.) at 30-min intervals until glycemic target is reached and at 2-hour intervals thereafter. A second contralateral cannula was installed for continuous i.v. administration of regular insulin and glucose, as needed, and plasma glucose has been brought progressively into the normal target range of 5-7 mmol/L overnight and then kept at this level. Experiments started around 8 AM. Patients have been kept fasting (drinking water permitted) during the entire 8-hour clamp study. […] Plasma glucose levels were monitored every 5 min for the first 4 hours and at 10-min intervals thereafter. […] Subjects were allowed to leave when glucose levels were stabilised over 6 mmol/L. Plasma lispro was measured by an ultra-specific radioimmunoassay (Linco Research Inc.) Detection limit is 18 pmol/L, intra-assay CV is 2.5% in our hands (Gagnon-Auger M, et al. Diabetes Care 2010;33(12):2502-7). […] The fractional plasmatic lispro AUCs were calculated by the trapezoidal method. […]

For `CC#CCC(C)[C@H](O)/C=C/[C@@H]1[C@H]2C/C(=C/CCCC(=O)O)C[C@H]2C[C@H]1O` (stereo partly shown) [iloprost], the “maximal plasma lispro concentrations” value ([1]; FIG. 5) was “rapidely increased”, the “lispro absorption (fractional AUCs of plasmatic lispro, 10 to 40 min)” value ([1]; FIG. 7) was “accelerated” and the “maximal glucose infusion rates” value ([2]; FIG. 8) was “rapidely increased”. The “hypoglycemic effect (early total glucose infusion, 30 to 60 min)” value ([2]; FIG. 9) was “accelerated”.
